Laboratory results taken from patent US4605744A, “Imidazole derivatives” (Hoffmann-La Roche Inc., priority 1985, dated 1986).
Where a name gives a salt, the structure may show the parent alone.

What was measured:
S. pyogenes 4 = test: In vivo antibacterial activity (PD50); details: Streptococcus pyogenes, 4, sc, sc; challenge 100 LD50s; 2 treatments; Table 10; read-out: PD50
E. aerogenes 8 = test: In vivo antibacterial activity (PD50); details: Klebsiella aerogenes, 8, sc, read-out: PD50, sc; challenge 24 LD50s; 2 treatments; Table 10
P. aeruginosa 6148B = test: In vivo antibacterial activity (PD50); details: Pseudomonas aeruginosa, sc, 3 treatments, Table 10
K. pneumoniae 503-990A = test: In vivo activity alone and in combination (PD50, FIC); details: Klebsiella pneumoniae, 503990A, sc, alone
Protocol: In Tables 9-14, the results of the in vivo activity against certain microorganisms of compounds I, M and N as given. […] The results in these Tables and the PD50 's were determined by the procedure set forth on page 160 in Beskid et al., Antimicrobial Agents and Chemotherapy, Vol. 20, No. 2 pp. 159-167 (Aug. 1981) for "in vivo studies".
In the Tables, the fractional inhibitory concentration index (FIC) for synergistic combination of a compound of this invention (X) with known antibiotic compound (Y) is determined by the following formula:
FIC=(PD50 (X combination)/PD50 (X alone)+(PD50 (Y
combination)/PD50 (Y alone)
An FIC of ≤0.60 is indicative of synergy. The synergy rating in the Tables is as follows:
In the combination, the parts are parts by weight, i.e. 10 to 1 is 10 parts by weight to 1 part by weight.

P. aeruginosa 6799 = test: In vivo antibacterial activity (PD50); details: Pseudomonas aeruginosa, 6799, sc, sc; challenge 48 LD50s; 2 treatments; Table 10; read-out: PD50
P. aeruginosa 6720 = test: In vivo antibacterial activity (PD50); details: Pseudomonas aeruginosa, 6720, sc, challenge 3511 LD50s, 2 treatments, Table 10
C. diversus CDC 1663-72 = test: In vitro antibacterial activity (MIC); format: cell-based; details: Citrobacter koseri, CDC166372; C. diversus CDC 1663-72; read-out: MIC
How it was run: (§1)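 Mueller-Hinton broth carries the compound at 128–0.008 μg/ml; diluted drug may be used fresh or stored frozen at -10° to -70° C before use. Wells are seeded with a 10^-2 dilution of overnight culture and incubated overnight at 37° C.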

E. coli 503-455 = test: In vitro antibacterial activity (MIC); format: cell-based; details: Escherichia coli, 503455, E. coli 503-455; read-out: MIC
How it was run: as §1

E. coli R-563 = test: In vitro antibacterial activity (MIC); format: cell-based; details: Escherichia coli, R563, E. coli R-563; read-out: MIC
How it was run: as §1

P. aeruginosa Stone 130 = test: In vitro antibacterial activity (MIC); format: cell-based; details: Pseudomonas aeruginosa, STONE130, read-out: MIC
How it was run: as §1

P. aeruginosa 8710 = test: In vitro antibacterial activity (MIC); format: cell-based; details: Pseudomonas aeruginosa; P. aeruginosa 8710; read-out: MIC
How it was run: as §1

E. cloacae 6951 = test: In vitro antibacterial activity (MIC); format: cell-based; details: Enterobacter cloacae, 6951, E. cloacae 6951; read-out: MIC
How it was run: as §1

S. faecalis C1 = test: In vitro antibacterial activity (MIC); format: cell-based; details: Enterococcus faecalis; S. faecalis C1; read-out: MIC
How it was run: as §1

S. pneumoniae 6301 = test: In vitro antibacterial activity (MIC); format: cell-based; details: Streptococcus pneumoniae, 6301, S. pneumoniae 6301; read-out: MIC
How it was run: as §1

S. marcescens S1 = test: In vitro antibacterial activity (MIC); format: cell-based; details: Serratia marcescens, S1, S. marcescens S1; read-out: MIC
How it was run: as §1

E. coli 5152 [1] = test: In vitro antibacterial activity (MIC); format: cell-based; details: Escherichia coli, 5152, E. coli 5152; read-out: MIC
How it was run: as §1

C. freundii CDC6 = test: In vitro antibacterial activity (MIC); format: cell-based; details: Citrobacter freundii, CDC6, C. freundii CDC6; read-out: MIC
How it was run: as §1

K. pneumoniae 35 = test: In vitro antibacterial activity (MIC); format: cell-based; details: Klebsiella pneumoniae; K. pneumoniae 35; read-out: MIC
How it was run: as §1

S. typhi P58A = test: In vitro antibacterial activity (MIC); format: cell-based; details: Salmonella enterica, TYPHI
How it was run: as §1

E. coli 387-1 = test: In vitro antibacterial activity (MIC); format: cell-based; details: Escherichia coli, 3871, E. coli 387-1; read-out: MIC
How it was run: as §1

E. coli 48 = test: In vitro antibacterial activity (MIC); format: cell-based; details: Escherichia coli, 48, E. coli 48; read-out: MIC
How it was run: as §1

P. aeruginosa B = test: In vitro antibacterial activity (MIC); format: cell-based; details: Pseudomonas aeruginosa, read-out: MIC
How it was run: as §1

P. aeruginosa 503-56 [2] = test: In vitro antibacterial activity (MIC); format: cell-based; details: Pseudomonas aeruginosa, 50356, P. aeruginosa 503-56; read-out: MIC
How it was run: as §1

S. pyogenes 503-782 = test: In vitro antibacterial activity (MIC); format: cell-based; details: Streptococcus pyogenes, 503782; S. pyogenes 503-782; read-out: MIC
How it was run: as §1

K. pneumoniae 503-964 = test: In vitro antibacterial activity (MIC); format: cell-based; details: Klebsiella pneumoniae, 503964; K. pneumoniae 503-964; read-out: MIC
How it was run: as §1

P. aeruginosa 5700 = test: In vitro antibacterial activity (MIC); format: cell-based; details: Pseudomonas aeruginosa, 5700, P. aeruginosa 5700; read-out: MIC
How it was run: as §1

S. pneumoniae 6302 = test: In vitro antibacterial activity (MIC); format: cell-based; details: Streptococcus pneumoniae, 6302, S. pneumoniae 6302; read-out: MIC
How it was run: as §1

E. coli 4 = test: In vitro antibacterial activity (MIC); format: cell-based; details: Escherichia coli, 4, E. coli 4; read-out: MIC
How it was run: as §1

E. coli 5152 [3] = test: In vivo antibacterial activity (PD50); details: Escherichia coli, 5152, sc, challenge 2717 LD50s, 2 treatments, Table 10
P. aeruginosa 503-56 [4] = test: In vivo antibacterial activity (PD50); details: Pseudomonas aeruginosa, 50356, sc, 2 treatments, Table 10
S. aureus Smith = test: In vivo antibacterial activity (PD50); details: Staphylococcus aureus, sc, 2 treatments, Table 10

In the case of `CC1(C)S[C@@H]2[C@H](N=CN3CCC(CC4=NCCN4)CC3)C(=O)N2[C@H]1C(=O)O` [M, [2S-(2alpha,5alpha,6beta)]-6-[[[4-[(4,5-dihydro-1H-imidazol-2-yl)methyl]-1-piperidinyl]methylene]amino]-3,3-dimethyl-7-oxo-4-thia-1-azabicyclo[3.2.0]heptane-2-carboxylic acid hydrochloride], the ED50 (S. pyogenes 4) is reported as < 2 mg/kg, the ED50 (E. aerogenes 8) is reported as 60 mg/kg and the ED50 (P. aeruginosa 6148B; challenge 4.5 LD50s) is reported as < 20 mg/kg. For the same compound, the ED50 (P. aeruginosa 6148B; challenge 33 LD50s) was < 20 mg/kg, the ED50 (K. pneumoniae 503-990A) was 9.4 mg/kg and the ED50 (P. aeruginosa 6799) was > 250 mg/kg. For the same compound, the ED50 (P. aeruginosa 6720) was 29 mg/kg, the MIC (C. diversus CDC 1663-72) was 0.062 µg/mL and the MIC (E. coli 503-455) was 2 µg/mL. The MIC (E. coli R-563) was 0.062 µg/mL, the MIC (P. aeruginosa Stone 130) was > 128 µg/mL and the MIC (P. aeruginosa 8710) was 64 µg/mL. It also gave an MIC (E. cloacae 6951) of 32 µg/mL, an MIC (S. faecalis C1) of 32 µg/mL and an MIC (S. pneumoniae 6301) of 1 µg/mL. It also gave an MIC (S. marcescens S1) of 0.25 µg/mL, an MIC (E. coli 5152 [1]) of 16 µg/mL and an MIC (C. freundii CDC6) of 0.125 µg/mL. The MIC (K. pneumoniae 35) was 1 µg/mL, the MIC (S. typhi P58A) was 0.062 µg/mL and the MIC (E. coli 387-1) was 0.062 µg/mL. It also gave an MIC (E. coli 48) of 0.125 µg/mL, an MIC (P. aeruginosa B) of 0.25 µg/mL and an MIC (P. aeruginosa 503-56 [2]) of 32 µg/mL. For the same compound, the MIC (S. pyogenes 503-782) was 32 µg/mL, the MIC (K. pneumoniae 503-964) was 0.25 µg/mL and the MIC (P. aeruginosa 5700) was 0.125 µg/mL. For the same compound, the MIC (S. pneumoniae 6302) was 1 µg/mL, the MIC (E. coli 4) was 0.062 µg/mL and the ED50 (E. coli 5152 [3]) was 134 mg/kg. For the same compound, the ED50 (P. aeruginosa 503-56 [4]; challenge 4.7 LD50s) was 67 mg/kg, the ED50 (P. aeruginosa 503-56 [4]; challenge 100 LD50s) was 100 mg/kg and the ED50 (S. aureus Smith; challenge 48 LD50s) was < 5 mg/kg. It also gave an ED50 (S. aureus Smith; challenge 100 LD50s) of 6.7 mg/kg.
